We go through 26 compounds from US5162336A, “Tetrahydro-pyrido-indoles as cholecystokinin and gastrin antagonists” (Rhone-Poulenc Rorer Pharmaceuticals Inc., priority 1990, dated 1992).

The experiment has as its target T1, Gastrin receptor (Cavia porcellus, UniProt H0VZC5).
T1 construct: The fundic mucosa is gently scraped off the submucosa; from tissue; host or cells: gastric glands from fundic mucosa of Hartley guinea pig
T1 sequence (H0VZC5 1-426): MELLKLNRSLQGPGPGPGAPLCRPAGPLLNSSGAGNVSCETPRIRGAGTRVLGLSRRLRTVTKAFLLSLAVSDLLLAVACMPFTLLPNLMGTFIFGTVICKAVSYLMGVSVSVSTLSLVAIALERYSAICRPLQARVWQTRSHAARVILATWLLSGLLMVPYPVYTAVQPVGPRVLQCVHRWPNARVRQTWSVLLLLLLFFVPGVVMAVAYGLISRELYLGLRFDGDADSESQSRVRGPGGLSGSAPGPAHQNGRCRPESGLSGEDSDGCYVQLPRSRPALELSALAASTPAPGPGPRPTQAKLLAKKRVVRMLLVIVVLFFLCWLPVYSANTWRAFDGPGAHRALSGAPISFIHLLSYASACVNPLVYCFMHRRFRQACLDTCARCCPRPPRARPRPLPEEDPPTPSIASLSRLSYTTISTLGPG
Nature of the experiment: Gastrin receptor binding assay (displacement of 125I-(Leu-15)-Gastrin from guinea pig fundic glands). On the set-up: species or system guinea pig (Hartley Strain). As to conditions: guinea pig fundic mucosa glands, 25° C., 30 min, read-out: In vitro Binding Data IC50 Gastrin. Here is the method: (a) Phosphate Buffered Saline (PBS): 8.743 g NaCl, 523 mg K2 HPO4 and 76.8 mg NaH2 PO4 is dissolved in 1.0 liter of deionized water and the pH of the solution is adjusted to 7.3 with 5N NaOH.
(b) Buffer A: While adding Basal Medium Eagle (BME) containing Earle's Salts, L-glutamine and 25 mM HEPES, 3 liters of deionized water is stirred, followed by the addition and dissolution of […] of sodium bicarbonate. The solution is then equilibrated with 95% O2 /5% CO2 gas followed by titration to a pH of 7.4 with NaOH.
(c) Buffer B: 18.75 mg of collagenase and […] of BSA is dissolved in 25 ml of Buffer A.
(d) Buffer C: 0.3 g of BSA is dissolved in 300 ml of Buffer A.
(e) 6.25 mg Bacitracin is dissolved in 25 ml of Buffer A.
(f) ^125 I-(Leu-15)-Gastrin: 100 microcurie dissolved in 2.0 ml of Buffer A to make 50 microcurie/ml.
(g) ^125 I-(15-methionine)-Human Gastrin: 50 microcurie/ml.
(h) (Leu 15)-Gastrin: 5.2 mg of (Leu-15)- Gastrin is dissolved in 10 ml of Buffer A. At the time of assay 1:10 dilution is made and 10 μl assay tube is used.
A guinea pig (Hartley Strain) weighing 150-200 grams, is sacrificed by CO2 asphyxiation and the stomach immediately excised, cut along the greater curvature, cleaned out and immediately immersed in a beaker containing cold PBS, pH 7.3, to insure thorough cleaning. The fundic mucosa is gently scraped off the submucosa and added to a preweighed 50 ml plastic centrifuge tube containing 30 ml of cold Buffer A. The weight of the plastic centrifuge tube containing the buffer is then subtracted from the combined weight of the mucosa and the buffer-containing tube to give the weight of the mucosa. The weight of the mucosa thus determined is recorded for later calculations.
The mucosa is then washed twice in Buffer A. After the final wash, the tissue is minced and is placed in a 100-ml glass beaker containing about 1.0 ml of Buffer A, and washed twice again by repeated centrifugation at 50×g for 5 minutes each and aspiration of supernatant. The washed tissue fragments are then added to a glass Erlenmeyer flask containing 25 ml of Buffer B and incubated in a Dubnoff shaking water bath at 37° C. for 30 minutes in a 95% O2 - 5% CO2 atmosphere. After the incubation, the digested tissue fragments in the Collegenase-buffer solution are triturated, filtered through a 200-micron nylon mesh and centrifuged at 50×g for 5 minutes. The supernatant is aspirated and discarded, the tissue washed 2× in Buffer C, resuspended in same buffer, incubated in a 37° C. water bath in an atmosphere of 95% O2 - 5% CO2 for 5 minutes, and centrifuged. The pelleted glands are suspended in Buffer D at a desired concentration of 2x10^5 glands/ml to use in the receptor binding assay.
Six minisorp tubes (16×100 mm) are serially marked and divided into two groups thus: tubes #1, #2, and #3 are marked "T" for "Totals" and tubes #4, #5, and #6 are marked "NS" for "Non-Specifics." Into each of the six tubes are added 220 μl of prepared glands in Buffer D; 20 μl of Buffer A in tubes #1, #2, and #3; 10 μl, in tubes #4, #5 and #6; (10μ of (Leu-15)-Gastrin (25 μM) in tubes #4, #5, and #6. The six tubes are then transferred immediately to a 25° C. water bath and challenged each with 10 μl ^125 I-(Leu-15)-Gastrin diluted as per calculation. The tubes are then covered with a gas hood connected to a 95% O2 - 5% CO2 gas source and mechanically agitated in a shaker for 30 minutes.
At the end of the incubation period, the assay mixtures are each filtered through a Whatman glass fiber filter B on a Brandel tissue harvester and washed twice with Buffer A. The filters are pre-soaked in Buffer C before use. The filter strips are removed after the final wash and individual filters counted in a Gamma Counter. The counts from the "Non-Specific" tubes are then averaged and subtracted from the average "Totals" to give the Specific Counts. […]

As to `NC(=O)[C@H](CC(=O)O)NC(=O)C1(NC(=O)[C@H]2Cc3c([nH]c4ccccc34)CN2C(=O)Nc2ccc(Cl)c(Cl)c2)CCCC1` [Example 26], the 50% inhibitory concentration (IC50) came to 1.3 µM.
Turning to `CC(C)C[C@H](NC(=O)[C@H]1Cc2c([nH]c3ccccc23)CN1C(=O)Nc1ccc(Cl)c(Cl)c1)C(=O)NCCC(=O)O` [Example 27], the IC50 was 0.41 µM.
As to `CC(C)C[C@H](NC(=O)[C@H]1Cc2c([nH]c3ccccc23)CN1C(=O)Nc1ccc(Cl)c(Cl)c1)C(=O)NCC(N)=O` [Example 28], the IC50 stood at 0.91 µM.
For `Cc1cccc(NC(=O)N2Cc3[nH]c4ccccc4c3C[C@@H]2C(=O)N[C@@H](CC(C)C)C(N)=O)c1` [Example 39, N-[(3R)-2-(3-methylphenylcarbamoyl)-1,2,3,4-tetrahydro-9H-pyrido[3,4-b]indole-3-carboxy]-L-leucinamide] the value was 0.23 µM; for `CC(C)C[C@H](NC(=O)[C@H]1Cc2c([nH]c3ccccc23)CN1)C(=O)N[C@@H](CC(=O)OCc1ccccc1)C(N)=O` [Example 40], 6 µM; for `Cc1cccc(NC(=O)N2Cc3[nH]c4ccccc4c3C[C@@H]2C(=O)N[C@@H](CC(C)C)C(=O)N[C@@H](Cc2ccccc2)C(N)=O)c1` [Example 42], 10 µM.
Then `CCOC(=O)c1ccc(NC(=O)[C@H]2Cc3c([nH]c4ccccc34)CN2C(=O)Nc2cccc(C)c2)cc1` [Example 43], with 30 µM.
As for `Cc1cccc(NC(=O)N2Cc3[nH]c4ccccc4c3C[C@@H]2C(=O)N2CCC[C@H]2C(=O)N[C@@H](CC(=O)O)C(N)=O)c1` [Example 44, N-[(3R)-2-(3-methylphenylcarbamoyl)-1,2,3,4-tetrahydro-9H-pyrido[3,4-b]indole-3-carboxyl]-L-prolyl-L-aspartic acid amide], the half-inhibitory concentration (IC50) worked out at 2.2 µM.
Regarding `Cc1cccc(NC(=O)N2Cc3[nH]c4ccccc4c3C[C@@H]2C(=O)N[C@H](CC(C)C)C(=O)N[C@H](CC(=O)O)C(N)=O)c1` [Example 45], the IC50 is more than 10 µM.
In the case of `CCCCCN(CCCCC)C(=O)[C@H](CC(=O)O)NC(=O)[C@H]1Cc2c([nH]c3ccccc23)CN1C(=O)Nc1cccc(C)c1` [Example 46, N-[(3R)-2-(3-methylphenylcarbamoyl)-1,2,3,4-tetrahydro-9H-pyrido[3,4-b]indole-3-carboxyl]-L-aspartic acid dipentyl amide], the IC50 was 2.6 µM.
Turning to `Cc1cccc(NC(=O)N2Cc3[nH]c4ccccc4c3C[C@H]2C(=O)N[C@H](CC(C)C)C(=O)N[C@H](CC(=O)O)C(N)=O)c1` [Example 49], the IC50 worked out at 0.9 µM.
For the compound `Cc1cccc(NC(=O)N2Cc3[nH]c4ccccc4c3C[C@@H]2C(=O)N[C@@H](CC(C)C)C(=O)N[C@@H](CC(N)=O)C(=O)O)c1` [Example 50], the IC50 was 12 µM.
Turning to `Cc1cccc(NC(=O)N2Cc3[nH]c4ccccc4c3C[C@@H]2C(=O)N[C@@H](CC(C)C)C(=O)N[C@H](CC(=O)O)C(N)=O)c1` [Example 51, N-[(3R)-2-(3-methylphenylcarbamoyl)-1,2,3,4-tetrahydro-9H-pyrido[3,4-b]indole-3-carboxyl]-L-leucyl-D-aspartic acid amide], the IC50 turned out to be 17 µM.
Then `Cc1cccc(NC(=O)N2Cc3[nH]c4ccccc4c3C[C@H]2C(=O)N[C@H](CC(C)C)C(=O)N[C@@H](CC(=O)O)C(N)=O)c1` [Example 52], with more than 30 µM; and `Cc1cccc(NC(=O)N2Cc3[nH]c4ccccc4c3C[C@@H]2C(=O)N(C)[C@@H](CC(C)C)C(=O)N[C@@H](CC(=O)O)C(N)=O)c1` [Example 53, N-[(3R)-2-(3-methylphenylcarbamoyl)-1,2,3,4-tetrahydro-9H-pyrido[3,4-b]indole-3-carboxyl]N'-methyl-L-leucine-L-aspartic acid amide], with 6 µM.
As to `Cc1cccc(C(=O)N2Cc3[nH]c4ccccc4c3C[C@@H]2C(=O)N[C@@H](CC(C)C)C(=O)N[C@@H](CC(=O)O)C(N)=O)c1` [Example 54], the IC50 came to 6.8 µM.
With `CC(C)C[C@H](NC(=O)[C@H]1Cc2c([nH]c3ccccc23)CN1C(=O)Nc1ccc(Cl)cc1)C(=O)N[C@@H](CC(=O)O)C(N)=O` [Example 55, N-[(3R)-2-(4-chlorophenylcarbamoyl)-1,2,3,4-tetrahydro-9H-pyrido[3,4-b]indole-3-carboxyl]-L-leucyl-L-asartic acid amide], the IC50 was determined as 3.3 µM.
Take `Cc1cccc(NC(=O)N2Cc3[nH]c4ccccc4c3C[C@@H]2C(=O)NCC(=O)N[C@@H](CC(=O)O)C(N)=O)c1` [Example 56, N-[(3R)-2-(3-methylphenylcarbamoyl)-1,2,3,4-tetrahydro-9H-pyido[3,4-b]indole-3-carboxyl]glycyl-L-aspartic acid amide]: the IC50 is more than 30 µM.
On to `Cc1cccc(NC(=O)N2Cc3[nH]c4ccccc4c3C[C@@H]2C(=O)N[C@H](CC(C)C)C(=O)N[C@@H](CC(=O)O)C(N)=O)c1` [Example 57, N-[(3R)-2-(3-methylphenylcarbamoyl)-1,2,3,4-tetrahydro-9H-pyrido[3,4-b]indole-3-carboxyl]-D-leucyl-L-aspartic acid amide], for which the IC50 amounted to 22 µM.
With `Cc1cccc(NC(=O)N2Cc3[nH]c4ccccc4c3C[C@@H]2C(=O)N[C@@H](C)C(=O)N[C@@H](CC(=O)O)C(N)=O)c1` [Example 58], the IC50 stood at 18 µM.
Then `CC(C)C[C@H](NC(=O)[C@H]1Cc2c([nH]c3ccccc23)CN1C(=O)Nc1cc(Cl)cc(Cl)c1)C(=O)N[C@@H](CC(=O)O)C(N)=O` [Example 59, N-[(3R)-2-(3,5-dichlorophenylcarbamoyl)-1,2,3,4-tetrahydro-9H-pyrido[3,4-b]indole-3-carboxyl]-L-leucyl-L-aspartic acid amide], with 2 µM.
Regarding `Cc1cc(C)cc(NC(=O)N2Cc3[nH]c4ccccc4c3C[C@@H]2C(=O)N[C@@H](CC(C)C)C(=O)N[C@@H](CC(=O)O)C(N)=O)c1` [Example 60, N-[(3R)-2-(3,5-dimethylphenylcarbamoyl)-1,2,3,4-tetrahydro-9H-pyrido[3,4-b]indole-3-carboxyl]-L-leucyl-L-aspartic acid amide], the IC50 came out at 15 µM.
As for `COc1cccc(NC(=O)N2Cc3[nH]c4ccccc4c3C[C@@H]2C(=O)N[C@@H](CC(C)C)C(=O)N[C@@H](CC(=O)O)C(N)=O)c1` [Example 61], the IC50 came out at 6.4 µM.
Then `CC(C)C[C@H](NC(=O)[C@H]1Cc2c([nH]c3ccccc23)CN1C(=O)Nc1ccc2ccccc2c1)C(=O)N[C@@H](CC(=O)O)C(N)=O` [Example 62], with 1.2 µM; and `CC(C)C[C@H](NC(=O)[C@H]1Cc2c([nH]c3ccccc23)CN1C(=O)Nc1cccc(C(F)(F)F)c1)C(=O)N[C@@H](CC(=O)O)C(N)=O` [Example 63], with 4.1 µM; and `Cc1cccc(NC(=O)N2Cc3[nH]c4ccccc4c3C[C@@H]2C(=O)N[C@@H](COCc2ccccc2)C(=O)N[C@@H](CC(=O)O)C(N)=O)c1` [Example 64], with 5.3 µM.
